These results are taken from paper PMC8703450, “New Heterocyclic Combretastatin A-4 Analogs: Synthesis and Biological Activity of Styryl-2(3H)-benzothiazolones” (Pharmaceuticals, 2021).

For orientation: IC50 means the concentration that inhibits the measured activity by half. High values mean weaker potency, low ones greater potency. The melting point is the temperature of the solid-liquid transition.

For data set [1], the system named is EA.hy926 cells. Nature of the data set: MTT cytotoxicity / growth inhibition assay, EA.hy926. Type of data set: cell-based, human. The method, then: The endothelial cell line (EA.hy926) was kindly provided by Dr. C-J.S. Edgell—University of North Carolina, USA. Cells were cultured in 4.5 g/L D-Glucose DMEM/F12 medium, supplemented with 10% fetal bovine serum (FBS, Cytogen GmBH, Greven, Germany) and 100 U/mL penicillin and streptomycin (Lonza BioWhitaker, Verviers, Belgium). The other cell lines used are described in Table S3.1. Cell cultures were maintained in an incubator at 37 °C with 95% humidity and 5% CO2 and were routinely found free of mycoplasma.
All tested compounds were dissolved in DMSO at 25 mM initial concentration and diluted with medium to obtain the working concentrations (0.01 nM–250 µM). Serial drug dilutions were prepared in medium immediately before each experiment. The DMSO working concentration in the medium was […]. For the MTT assay, cells were seeded into 96-well microtitre plates at a density of 1 × 10^4 in 100 µL complete medium per well. They were further incubated for 24 h, followed by treatment with CA-4 analogs up to 72 h. Cell viability was determined using the MTT assay. Ten µL of MTT solution (5 mg/mL) was added to each well and further incubated for 3 h at 37 °C. To dissolve the formazan product, 100 µL/well of 99.5% isopropanol was added. Cell viability was determined by measuring absorbance at 550/630 nm using a DTX880 plate reader (Beckman Coulter, USA). Results, expressed as concentrations that inhibit 20% (IC20), 50% (IC50), and 80% (IC80) of cell growth, were calculated using GraphPad Prism 8.0.1.

For data set [2], the system named is EA.hy926 cells. Kind of data set: Clonogenic survival assay. The following applies: 72 h treatment + 6 days recovery; for decrease in colony number: EA.hy926, 250 nM; for reduction in colony formation: EA.hy926, 2.5, 10 and 25 µM. Type of data set: cell-based, human. As to the method: EA.hy926 cells were seeded at 300 cells/well on a 6-well plate and incubated for 24 h. The cells were treated with different concentrations of test compounds for 72 h. After six additional days of growth in a fresh medium to form visible colonies, cells were washed with phosphate-buffered saline (PBS, pH 7.4) and stained with crystal violet (0.5%, w/v) in 6% glutaraldehyde. After 30 min of incubation, the plates were washed with tap water, dried, photographed, and analyzed using ImageJ [79]. Raw data were normalized to the corresponding DMSO control for each independent experiment. After normalization, statistically significant differences for colony-forming efficiency (CFE) values versus […] were calculated.

Data set [3] relates to EA.hy926 cells. Nature of the data set: In vitro cell migration (wound-healing) assay. Type of data set: cell-based, human. Particulars: EA.hy926, 50 nM, 24 h. As to the method: A total of 3 × 10^5 EA.hy926 cells were seeded in a 12-well plate and grown close to the confluence. The cell monolayer was gently scraped with a P200 pipette tip, creating a wound area around 1-mm wide. Cells were washed twice with fresh medium and treated with test compounds diluted in growth media to the corresponding sub-toxic concentrations. Images were acquired at 0 and 24 h following treatment. After incubation for 24 h, the scratch wound width was measured and recorded, and then compared with the initial scratch wound width at 0 h. Using the ImageJ image processing program (ImageJ150-WIN-Java8), the size of the denuded area in pixels was determined at each time point from the digital images.

A further data set concerns α,β-tubulin. Nature of the data set: In vitro quantification of polymeric vs. soluble tubulin fractions in EA.hy926 cells. Particulars: EA.hy926, 1 µM, 6 h; DMSO control 2.33 ± 0.14. Format: cell-based, human. As to the method: To assess the early effects on the microtubule cytoskeleton in vitro, EA.hy926 cells were cultured for 24 h in 6-cm dishes (3 × 10^5 cells). They were exposed to […] (control), 1 μM CA-4, paclitaxel, or increasing concentrations of 26Z (50, 100, 250, 2500, 10,000 nM) for 6 h. Cells were washed with PBS and lysed directly in the dishes with hypotonic lysis buffer (20 mM Tris-HCl, 1 mM MgCl2, 2 mM EGTA, 0.5% Triton X-100, glycerol 10%, pH 6.8), supplemented with protease inhibitors (2 μg/mL leupeptin, 2 μg/mL pepstatin, 0.4 mM Na vanadate, 0.5 mM PMSF, 1 mM DTT), for 3 min at 30 °C. The soluble fraction was immediately collected, mixed with 5× sample buffer, and boiled at 95 °C for 5 min. The polymerized fraction was collected directly from the culture dish following 10 min of incubation at room temperature with 1× sample buffer.
For the concentration-dependent assay, the cells were harvested by scraping and centrifuged at 1000 g for 5 min, and then lysed with the hypotonic cell lysis buffer for 10 min at room temperature. Tubulin fractions were obtained by centrifugation at 12,000 × g for 10 min.
Equal volumes of the samples were subjected to 10% SDS-PAGE followed by western blotting. Detection of β-tubulin content was accomplished with an anti-β-tubulin mouse monoclonal antibody (sc-101527, Santa Cruz Biotechnology).

In data set [4] the test system is EA.hy926 cells. Kind of data set: Matrigel tube disruption assay. Format: cell-based, human. Particulars: EA.hy926 on Matrigel, IC50 concentration, 24 h of treatment, compared with time 0. The method, then: The tube formation assay was performed in 96-well plates coated with 40 µL BD Matrigel™ (basement membrane matrix), following the manufacturer’s instruction (BD Biosciences). A total of 2 × 10^4 EA.hy926 cells was re-suspended in growth medium and added to each well in a final volume of 100 µL. Tube formation was visualized directly using a light microscope. Images were captured using a phase-contrast microscope and quantitation was performed using the WimTube application of the Wimasis online image analysis platform (https://www.wimasis.com/en/products/13/WimTube; accessed on 1 June 2021).

The subject of data set [5] is rhodamine-labeled α,β-tubulin. Kind of data set: Ex vivo rhodamine-tubulin polymerization (fluorescence microscopy). The following applies: 20 μM, 37 °C, 45 min.
Protocol: TAMRA-Tubulin (TL590M, Cytoskeleton) diluted in GTB buffer (PEM, 10% glycerol, 1 mM GTP) was mixed with unlabeled α,β-tubulin (T240, Cytoskeleton) at a ratio of 1:3 (v/v) to a concentration of 4.0 mg/mL. […] Samples were then centrifuged for 20 min at 30,000× g. The pellets were diluted in 6 µL PEM buffer, containing 1 mM GTP and 0.5% glutaraldehyde, mixed with anti-fade mounting media (P36934, Invitrogen, Eugene, USA), and examined under a confocal LSM 980 Airyscan microscope (Carl Zeiss AG, Oberkochen, Germany).
[6] abbreviates: Homo sapiens, EA.hy 926, 72 h of treatment.

`COc1ccc(/C=C\c2cccc3sc(=O)n(C)c23)cc1` [Compound 15Z, (E/Z)-4-(4-Methoxystyryl)-3-Methyl-2(3H)-Benzothiazolone] returned a half-inhibitory concentration (IC50) with EA.hy926 cells [1] (72 h of treatment) of 22 ± 4.57 µM. For `COc1ccc(/C=C\c2cccc3sc(=O)n(C)c23)cc1OC` [Compound 16Z, (Z)-4-(3,4-Dimethoxystyryl)-3-methyl-2(3H)-benzothiazolone], half-maximal inhibition in the data set on EA.hy926 cells [1] (setting [6]) (IC50) required 25.8 ± 3.11 µM. In the data set on EA.hy926 cells [1] (setting [6]), `COc1cc(/C=C\c2cccc3sc(=O)n(C)c23)cc(OC)c1` [Compound 17Z, (Z)-4-(3,5-Dimethoxystyryl)-3-methyl-2(3H)-benzothiazolone] displayed an IC50 of 19.5 ± 2.71 µM. `COc1cc(/C=C\c2cccc3sc(=O)n(C)c23)cc(OC)c1OC` [Compound 18Z, (Z)-3-Methyl-4-(3,4,5-trimethoxystyryl)-2(3H)-benzothiazolone] returned an IC50 in the data set on EA.hy926 cells [1] (setting [6]) of 15.6 ± 1.16 µM. Same read-out and setting: the same measure for `COc1ccc(/C=C\c2ccc3sc(=O)n(C)c3c2)cc1` [Compound 19Z, (Z)-5-(4-Methoxystyryl)-3-methyl-2(3H)-benzothiazolone]: 12 ± 2.49 µM; for `COc1ccc(/C=C\c2ccc3sc(=O)n(C)c3c2)cc1OC` [Compound 20Z, (Z)-5-(3,4-Dimethoxystyryl)-3-methyl-2(3H)-benzothiazolone]: 14.6 ± 1.75 µM; for `COc1cc(/C=C\c2ccc3sc(=O)n(C)c3c2)cc(OC)c1` [Compound 21Z, (Z)-5-(3,5-Dimethoxystyryl)-3-methyl-2(3H)-benzothiazolone]: 10.8 ± 0.62 µM. On the same count and under the same terms, the value for `COc1cc(/C=C\c2ccc3sc(=O)n(C)c3c2)cc(OC)c1OC` [Compound 22Z, (Z)-3-Methyl-5-(3,4,5-trimethoxystyryl)-2(3H)-benzothiazolone] was 9.43 ± 0.92 µM; that for `COc1ccc(/C=C\c2ccc3c(c2)sc(=O)n3C)cc1` [Compound 23Z, (Z)-6-(4-Methoxystyryl)-3-methyl-2(3H)-benzothiazolone] was 19.8 ± 3.45 µM. Turning to `COc1ccc(/C=C\c2ccc3c(c2)sc(=O)n3C)cc1OC` [Compound 24Z, (Z)-6-(3,4-Dimethoxystyryl)-3-methyl-2(3H)-benzothiazolone], the IC50 in the data set with EA.hy926 cells [1] (setting [6]) worked out at 9.28 ± 1.13 µM. `COc1cc(/C=C\c2ccc3c(c2)sc(=O)n3C)cc(OC)c1` [Compound 25Z, (Z)-6-(3,5-Dimethoxystyryl)-3-methyl-2(3H)-benzothiazolone]: in the data set on EA.hy926 cells [2], the “decrease in colony number” value stood at 55% and the “reduction in colony formation” value is “about 100%”. The “remaining mean wound opened area” value with EA.hy926 cells [3] is 22.4%. In the data set on EA.hy926 cells [1] (setting [6]), this compound came in with a half-inhibitory concentration (IC50) of 1.88 ± 0.18 µM. With `COc1cc(/C=C/c2ccc3c(c2)sc(=O)n3C)cc(OC)c1OC` [Compound 26E, (E/Z)-3-Methyl-6-(3,4,5-Trimethoxystyryl)-2(3H)-Benzothiazolone], the IC50 in the data set with EA.hy926 cells [1] (72 h of treatment) was found to be 38.2 ± 5.35 µM. The compound `COc1cc(/C=C\c2cccc3c2sc(=O)n3C)cc(OC)c1OC` [Compound 27Z, (E/Z)-3-Methyl-7-(3,4,5-Trimethoxystyryl)-2(3H)-Benzothiazolone] displayed a melting point of 155 to 156 °C. In addition, in the data set with EA.hy926 cells [2], the “decrease in colony number” value turned out to be 75% and the “reduction in colony formation” value is reported as “about 100%”. In addition, the “remaining mean wound opened area” value with EA.hy926 cells [3] was 3%. In the data set with EA.hy926 cells [1] (setting [6]), this compound displayed an IC50 of 0.3 ± 0.05 µM. Also, in the data set on α,β-tubulin, the “soluble vs. polymerized tubulin ratio” value is reported as 1.82 ± 0.36. Besides, the “reduction in cumulative tube length” value in the data set with EA.hy926 cells [4] is given as ~ 70%. Consider `CC(=O)O[C@H]1C(=O)[C@@]2(C)[C@H]([C@H](OC(=O)c3ccccc3)[C@]3(O)C[C@H](OC(=O)[C@H](O)[C@@H](NC(=O)c4ccccc4)c4ccccc4)C(C)=C1C3(C)C)[C@]1(OC(C)=O)CO[C@@H]1C[C@@H]2O` [paclitaxel, reference compound], for which the “soluble vs. polymerized tubulin ratio” value with α,β-tubulin came to 0.51 ± 0.19. Besides, the “fluorescent microtubule fiber formation” value in data set [5] is given as “promoted the formation of microtubule fibers”.
